Results on 3 molecules are retold here after US20230133037A1, “EXTENDED RELEASE GASTRORETENTIVE FORMULATION AGAINST HELICOBACTER PYLORI” (SOLSTAR PHARMA, priority 2019, published 2023).

Values after ≈ are worked out from the molar mass of the structure shown. Where two headings read alike, the source gives them in different places.

One data set deals with H. pylori PremSS1 strain. The experiment in a line: In vivo test of anti-Helicobacter pylori activities. More on the design: species or system C57BL/6 mice. The note with it: ARTE/SG 40, Nacinn 40, Amoxicillin 30 mg/kg. Here is the method:
C57BL/6 mice with SPF («specific pathogen free») status, were housed at the A2 pet store at the University of Bordeaux, in an acclimatization room for 1 week and then transferred to zone of experimentation where the project was conducted.
The H. pylori PremSS1 strain (supplied by Dr Anne Mueller, University of Zurich) was used. The functionality of the cagPAl island was verified in vitro in a coculture model with the gastric epithelial line AGS: induction of a so-called «hummingbird» phenotype.
The mice were force-fed at 6 weeks of age with the H. pylori premSS1 strain. The gavages were carried out 3 consecutive days, with a rich suspension of bacteria (2 to 3 dishes of rich culture for 5 mice). […]
The dishes were incubated at 35° C. in a microaerobic atmosphere and H. pylori was identified by its phenotypic and biochemical characteristics (morphology, urease test, oxidase test). The dishes were read after at least 5 days of incubation. […]
Quantitative PCR: the presence of H. pylori DNA and mouse housekeeping genes is quantified in the extracts by quantitative PCR in real time, by detecting the fluorescence emitted by the neo PCR products formed using Sybr Green™. […]

Data set [1] is described as follows: Water solubility / behaviour in solution. The data set is classed as physicochemical.
A short description of data set [2]: Solubility in simulated gastric fluid. The data set is classed as physicochemical. As to conditions: 0.5 g in 10 mL SGF pH 1.2, 36.5° C.; for appearance of the solution in SGF after 2 hours: 100 rev/min.
Method: All solutions are incubated at 36.5° C. under mild shaking with (100 rev/min) in a G24 Environmental Incubator Shaker (New Brunswick Scientific Co., N.J., USA).
The test system of another data set is E. coli. Briefly: Antibacterial activity of artesunate with different treatments. The data set is classed as cell-based. As to conditions: 0.2% w/w in medium, start 1.0×10^6 CFU/mL, 18 h at 36.5° C. Here is the method: Practically, a bacterial cryovial is thawed and cultured twice during 18 h at 36.5° C. in 9 mL of broth for activation.
In another data set the test system is ML2 cells. Briefly: Cell growth, resazurin fluorescence assay. The data set is classed as cell-based. As to conditions: 2 μM, 3 days. The method, then:
(§1) Cell growth was followed via the resazurin (alamar blue) fluorescence assay. At day −1, cells were seeded in 100 μL media at a density of 4×10^3 cells/well in 96-well plates and incubated overnight at 37° C. […] Cultures were performed during 3 days after the addition of the drugs. At day 3, Resazurin (0.1 mg/mL, Sigma-Aldrich) was added at 20 μL/well, and plates were incubated for 4 h at 37° C., then fluorescence (Aex=529.5 nm, Aem =582 nm) was measured using ClarioStar™ microplate reader.
(§2) Those supposedly selected cells may be used to test for artemisinin sensitivity before and after encapsulation. This first objective, in addition to checking the sensitivity to artesunate (ARTE), is to test the sensitivity to the complex form (ARTE/Starch Glycolate) as well. This provides information on whether the encapsulation process affects the efficiency of ARTE in vitro. The effects of both drugs on the proliferation of 10 AML cell lines and 1 CML cell line was tested. Both the drug or the drug/Starch Glycolate complex were used at 2 μM, a dose that has been reported to be very efficient at least in two AML cell lines (MV4-11 and MOLM13). The ARTE/Starch Glycolate in water was prepared fresh every time for each experiment. Frozen (−20° C.) ARTE/Starch Glycolate complex was also tested in parallel to fresh ARTE/Starch Glycolate in each experiment, to evaluate stability after freezing. • a.
A general note: Resazurin is reduced to fluorescent resorufin, in cell work by metabolically active cells.

Another data set has as its system HEL cells. Briefly: Cell growth, resazurin fluorescence assay. The data set is classed as cell-based. The note with it: 2 μM, 3 days. The method, then: as §1, §2
Another data set concerns MOLM13 cells. The experiment in a line: Cell growth, resazurin fluorescence assay. The note with it: 2 μM, 3 days. The data set is classed as cell-based. The method, then:
as §1, §2

The test system of a further data set is THP1 cells. Briefly: Cell growth, resazurin fluorescence assay. The data set is classed as cell-based. As to conditions: 2 μM, 3 days. Here is the method: as §1, §2
For a further data set, the system named is HL60 cells. The experiment in a line: Cell growth, resazurin fluorescence assay. As to conditions: 2 μM, 3 days. The data set is classed as cell-based. Here is the method:
as §1, §2

For a further data set, the system named is U937 cells. Briefly: Cell growth, resazurin fluorescence assay. The data set is classed as cell-based. As to conditions: 2 μM, 3 days. Here is the method:
as §1, §2

For another data set, the system named is NB4 cells. Briefly: Cell growth, resazurin fluorescence assay. The data set is classed as cell-based. The note with it: 2 μM, 3 days. The method, then: as §1, §2
The test system of another data set is KG1a cells. The experiment in a line: Cell growth, resazurin fluorescence assay. The data set is classed as cell-based. The note with it: 3 days. The method, then: Cell growth was followed via the resazurin (alamar blue) fluorescence assay. At day −1, cells were seeded in 100 μL media at a density of 4×10^3 cells/well in 96-well plates and incubated overnight at 37° C. […] Cultures were performed during 3 days after the addition of the drugs. At day 3, Resazurin (0.1 mg/mL, Sigma-Aldrich) was added at 20 μL/well, and plates were incubated for 4 h at 37° C., then fluorescence (Aex=529.5 nm, Aem =582 nm) was measured using ClarioStar™ microplate reader. […] Those supposedly selected cells may be used to test for artemisinin sensitivity before and after encapsulation. This first objective, in addition to checking the sensitivity to artesunate (ARTE), is to test the sensitivity to the complex form (ARTE/Starch Glycolate) as well. This provides information on whether the encapsulation process affects the efficiency of ARTE in vitro. The effects of both drugs on the proliferation of 10 AML cell lines and 1 CML cell line was tested. […] ARTE.SG and ARTE have the Same IC50 in 4 Representative Leukemic Cell Lines To further confirm the equivalent efficiency between ARTE and ARTE.SG, the IC50 of both drugs on 4 leukemic cell lines that cover the 3 sensitivity groups described above was calculated.

On the set-up of data set [3]: species or system CD-1 mice. As to conditions: CD-1, mouse, in vivo.
Method: The in vivo study was carried out on CD-1 mice (body weight approximately 20 g), and the experimental protocol is conducted according to the Animal Care Committee approval.
After review of the medical records provided by the animal supplier facility, mice are observed during 1 week for their acclimation before the experiment.
After administering the treatments as indicated above, blood samples are collected at 5, 15, 30, 45, 120 and 480 minutes after administration and mice are sacrificed. The plasma is separated by centrifugation and conserved −80° C. before processing.
An amount of 400 μL of plasma is dispersed in 1 mL of acetonitrile to precipitate proteins and agitated during 5 minutes with a vortex before placing the suspensions of the sample in an ultrasonic bath for 1 minute. The precipitated proteins are separated by centrifugation (15000 g, 5 minutes at 16° C.) and the supernatant is collected in a microplate for analysis.
On the set-up of data set [4]: species or system CD-1 mice. As to conditions: CD-1, mouse, in vivo, po, 200 mg/kg.
Method: The in vivo study was carried out on CD-1 mice (body weight approximately 20 g), and the experimental protocol is conducted according to the Animal Care Committee approval. After review of the medical records provided by the animal supplier facility, mice are observed during 1 week for their acclimation before the experiment.
The subject of a further data set is K562 cells. Briefly: Cell growth, resazurin fluorescence assay. The note with it: 3 days. The data set is classed as cell-based. Here is the method:
(§3) Cell growth was followed via the resazurin (alamar blue) fluorescence assay. At day −1, cells were seeded in 100 μL media at a density of 4×10^3 cells/well in 96-well plates and incubated overnight at 37° C. […] Cultures were performed during 3 days after the addition of the drugs. At day 3, Resazurin (0.1 mg/mL, Sigma-Aldrich) was added at 20 μL/well, and plates were incubated for 4 h at 37° C., then fluorescence (Aex=529.5 nm, Aem =582 nm) was measured using ClarioStar™ microplate reader. […] Those supposedly selected cells may be used to test for artemisinin sensitivity before and after encapsulation. This first objective, in addition to checking the sensitivity to artesunate (ARTE), is to test the sensitivity to the complex form (ARTE/Starch Glycolate) as well. This provides information on whether the encapsulation process affects the efficiency of ARTE in vitro. The effects of both drugs on the proliferation of 10 AML cell lines and 1 CML cell line was tested. Both the drug or the drug/Starch Glycolate complex were used at 2 μM, a dose that has been reported to be very efficient at least in two AML cell lines (MV4-11 and MOLM13). The ARTE/Starch Glycolate in water was prepared fresh every time for each experiment. Frozen (−20° C.) ARTE/Starch Glycolate complex was also tested in parallel to fresh ARTE/Starch Glycolate in each experiment, to evaluate stability after freezing. • a.

The test system of a further data set is MV4-11 cells. The experiment in a line: Cell growth, resazurin fluorescence assay. The data set is classed as cell-based. The note with it: 3 days. Here is the method: as §3
For a further data set, the system named is KG1 cells. Briefly: Cell growth, resazurin fluorescence assay. As to conditions: 3 days. The data set is classed as cell-based. The method, then: as §3
Another data set deals with H. pylori strains. Briefly: Minimum inhibitory concentration, agar dilution method. The data set is classed as cell-based. As to conditions: Helicobacter pylori; about 59 strains, 48 h at 37° C., microaerobic.
For data set [5] the following is noted: according to the DrugBank; cited from earlier work.

As for `CC1(C)S[C@@H]2[C@H](NC(=O)[C@H](N)c3ccc(O)cc3)C(=O)N2[C@H]1C(=O)O` [Amoxicillin], the “antibacterial effect by quantitative culture or quantitative PCR (Experiment 1)” value with H. pylori PremSS1 strain (7 days of treatment, absence of proton pump inhibitor) is “no antibacterial effect”. The “antibacterial effect by quantitative culture or quantitative PCR (Experiment 2)” value in the data set with H. pylori PremSS1 strain (14 days, with Pantoprazole 150 mg/kg) was “certain antibacterial effect”.

Turning to `C[C@H]1[C@H](OC(=O)CCC(=O)[O-])O[C@@H]2O[C@@]3(C)CC[C@H]4[C@H](C)CC[C@@H]1[C@@]24OO3.[Na+]` [artesunate sodium salt form], the “solubility in water” value in data set [1] is reported as “only slightly soluble”. For the same molecule, in data set [2], the “appearance of the solution in SGF after 2 hours” value was “cloudy, but no evident precipitation is observed” and the “appearance of the solution in SGF after 12 h” value was “a precipitation is formed at the bottom”. In the data set with E. coli, the “bacterial concentration after incubation (reduction from 10^6)” value is 10^4 CFU/mL.

As a reminder, the IC50 is the point on the concentration scale where inhibition reaches its midpoint. A lower IC50 goes with higher potency. A word on the MIC50: it is the lowest concentration that inhibits either 50% of growth or 50% of the strains tested, depending on the study. A low value points to greater potency. One may read the MIC90 as an inhibitory concentration at the 90% level, which refers to growth in some studies and to a panel of isolates in others. Low readings indicate greater potency, high ones weaker potency. Turning to `C[C@@H]1CCC2[C@@H](C)[C@H](OC(=O)CCC(=O)O)OC3O[C@@]4(C)CCC1[C@]32OO4` (stereo partly shown) [untreated artesunate, Artesunate], the sensitivity group result in the data set on ML2 cells is given as “moderately sensitive”; in the data set on HEL cells, “moderately sensitive”; with MOLM13 cells it was “highly sensitive”; with THP1 cells, “highly sensitive”; with HL60 cells, “moderately sensitive”; with U937 cells, “moderately sensitive”. Further, the sensitivity group result is listed as “highly sensitive” in the data set on NB4 cells; “low sensitivity” in the data set on KG1a cells (2 μM); “low sensitivity” in the data set on K562 cells (2 μM); “highly sensitive” in the data set on MV4-11 cells (2 μM); “moderately sensitive” in the data set on KG1 cells (2 μM). Also, the IC50 was about 2000 nM in the data set on KG1a cells (Homo sapiens, KG-1a, 72 h, preliminary); about 8000 nM in the data set with K562 cells (Homo sapiens, K562, 72 h, preliminary); 250 to 500 nM in the data set on MV4-11 cells (Homo sapiens, MV4-11, 72 h, preliminary); about 1000 nM in the data set on KG1 cells (Homo sapiens, KG-1, 72 h, preliminary). Also, the “AUC Area under curve” value in data set [3] (iv, 3.5 mg/kg) was 507 ± 102 ng·min/mL. Also, the “Cl Clearance” value amounted to 415.8 ± 23.9 L/h/kg in data set [3] (iv, 3.5 mg/kg) and 1457.7 ± 511.6 L/h/kg in data set [3] (po, 200 mg/kg). In addition, the “Tmax Maximum peak time” value in data set [3] (iv, 3.5 mg/kg) was found to be 15 min. Further, the “T½ Apparent plasma half-life” value in [3] (iv, 3.5 mg/kg) was determined as 12 ± 2 min. Also, the “Oral Bioavailability F” value in [3] (po, 200 mg/kg) is listed as 8 ± 4%. Moreover, the “appearance of the solution in SGF after 2 hours” value in [2] was “milky appearance, with an important precipitation at the bottom of vial”. Besides, the “appearance of the solution in SGF after 12 h” value in data set [2] was “no change”. In addition, the “bacterial concentration after incubation (reduction from 10^6)” value in the data set on E. coli is listed as “no significant change”. Moreover, the “time to maximum concentration of DHA (prostate section, printed 'in the brain')” value in data set [4] is 30 min. This molecule registered an MIC50 against H. pylori strains of 20 µg/mL (≈ 52 µM). The same molecule returned an MIC90 against H. pylori strains of 80 µg/mL (≈ 208 µM). Further, the water solubility in data set [5] is 680 µg/mL (≈ 1770 µM).
